In patent US9963467B2, “Boronic acid derivatives and therapeutic uses thereof” (Rempex Pharmaceuticals, Inc., priority 2014, dated 2018):

What was measured:
KP1010 (SHV-12) = assay: Tigemonam potentiation (MPC@4), KP1010; assay type: cell-based
EC1010 (CMY-6) [1] = assay: organism not typed; assay type: cell-based
OXA-48 = OXA-48 (Klebsiella pneumoniae, UniProt Q6XEC0); assay: Ki, nitrocefin cleavage by purified enzyme, OXA-48; assay type: biochemical; settings: nitrocefin reporter substrate; read-out: Ki (OXA-48, NCF)
How it was run: (§1)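 Readout: nitrocefin hydrolysis, A490 recorded every 10 sec over 10 min. Enzyme and inhibitor (varied concentrations) preincubated 10 min, RT, in reaction buffer before substrate addition.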

KP1009 (CTX-M-15) [2] = assay: Tigemonam potentiation (MPC@4), KP1009; assay type: cell-based; settings: BLI with tigemonam at 4 μg/mL
SHV-12 = SHV-12 (Klebsiella pneumoniae, UniProt P0AD64, E235K/G234S/L31Q); assay: Ki, nitrocefin cleavage by purified enzyme, SHV-12; assay type: biochemical; settings: nitrocefin reporter substrate; read-out: Ki (SHV-12, NCF)
How it was run: as §1

CTX-M-14 = CTX-M-14 (Escherichia coli, UniProt Q9L5C7); assay: Ki, nitrocefin cleavage by purified enzyme, CTX-M-14; assay type: biochemical; settings: nitrocefin reporter substrate; read-out: Ki (CTX-M-14, NCF)
How it was run: as §1

ec302 (TEM-10) [3] = assay: Aztreonam potentiation (MPC@4), ec302; assay type: cell-based; settings: BLI with aztreonam at 4 μg/mL
KPC-2 = KPC-2 (Klebsiella pneumoniae, UniProt Q9F663); assay: Ki, nitrocefin cleavage by purified enzyme, KPC-2; assay type: biochemical; settings: nitrocefin reporter substrate; read-out: Ki (KPC-2, NCF)
How it was run: as §1

Pa AmpC = Pa AmpC (Pseudomonas aeruginosa, UniProt P24735); assay: Ki, nitrocefin cleavage by purified enzyme, Pa AmpC; assay type: biochemical; settings: nitrocefin reporter substrate; read-out: Ki (Pa AmpC, NCF)
How it was run: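 Spectrophotometric Ki: enzyme + inhibitor (varied conc.), 10 min RT preincubation; nitrocefin added; A490 read every 10 sec for 10 min.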

ec308 (SHV-5) = assay: Tigemonam potentiation (MPC@4), ec308; assay type: cell-based
ECL1002 [4] = assay: Aztreonam potentiation (MPC@4), ECL1002; assay type: cell-based; settings: BLI with aztreonam at 4 μg/mL
KP1009 (CTX-M-15) [5] = assay: organism not typed; assay type: cell-based
P99 = P99 (Enterobacter cloacae, UniProt P05364); assay: Ki, nitrocefin cleavage by purified enzyme, P99; assay type: biochemical; settings: nitrocefin reporter substrate; read-out: Ki (P99, NCF)
How it was run: as §1

EC1010 (CMY-6) [6] = assay: Tigemonam potentiation (MPC@4), EC1010; assay type: cell-based; settings: BLI with tigemonam at 4 μg/mL
ec302 (TEM-10) [7] = assay: Tigemonam potentiation (MPC@4), ec302; assay type: cell-based
ECL1002 [8] = assay: Tigemonam potentiation (MPC@4), ECL1002; assay type: cell-based; settings: BLI with tigemonam at 4 μg/mL
KP1004 (KPC-2) [9] = assay: Aztreonam potentiation (MPC@4), KP1004; assay type: cell-based; settings: BLI with aztreonam at 4 μg/mL
KP1004 (KPC-2) [10] = assay: Biapenem potentiation (MPC@1), KP1004; settings: BLI with biapenem at 1 μg/mL
KP1005 (CTX-M-14) [11] = assay: Tigemonam potentiation (MPC@4), KP1005; assay type: cell-based; settings: BLI with tigemonam at 4 μg/mL
KP1005 (CTX-M-14) [12] = assay: Aztreonam potentiation (MPC@4), KP1005; assay type: cell-based; settings: BLI with aztreonam at 4 μg/mL
KP1086 (OXA-48) = assay: Biapenem potentiation (MPC@1), KP1086; settings: BLI with biapenem at 1 μg/mL

KPC-2, sequence (Q9F663 25-293, looked up, species assumed): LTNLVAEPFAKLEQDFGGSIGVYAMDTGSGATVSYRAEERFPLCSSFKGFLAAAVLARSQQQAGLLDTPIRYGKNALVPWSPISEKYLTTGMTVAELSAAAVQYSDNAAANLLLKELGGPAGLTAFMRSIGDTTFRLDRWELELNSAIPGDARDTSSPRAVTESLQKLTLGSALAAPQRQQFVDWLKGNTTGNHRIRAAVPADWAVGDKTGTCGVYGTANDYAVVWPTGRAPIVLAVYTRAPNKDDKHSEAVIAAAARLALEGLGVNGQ
OXA-48, sequence (Q6XEC0 23-265, looked up, species assumed): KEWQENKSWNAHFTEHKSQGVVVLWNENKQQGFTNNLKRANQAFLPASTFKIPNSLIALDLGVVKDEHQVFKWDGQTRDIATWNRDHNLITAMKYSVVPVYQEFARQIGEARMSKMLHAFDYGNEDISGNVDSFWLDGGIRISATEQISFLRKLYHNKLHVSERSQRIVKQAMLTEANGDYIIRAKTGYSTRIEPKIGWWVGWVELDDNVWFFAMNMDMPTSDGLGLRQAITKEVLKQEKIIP
Pa AmpC, sequence (P24735 27-397): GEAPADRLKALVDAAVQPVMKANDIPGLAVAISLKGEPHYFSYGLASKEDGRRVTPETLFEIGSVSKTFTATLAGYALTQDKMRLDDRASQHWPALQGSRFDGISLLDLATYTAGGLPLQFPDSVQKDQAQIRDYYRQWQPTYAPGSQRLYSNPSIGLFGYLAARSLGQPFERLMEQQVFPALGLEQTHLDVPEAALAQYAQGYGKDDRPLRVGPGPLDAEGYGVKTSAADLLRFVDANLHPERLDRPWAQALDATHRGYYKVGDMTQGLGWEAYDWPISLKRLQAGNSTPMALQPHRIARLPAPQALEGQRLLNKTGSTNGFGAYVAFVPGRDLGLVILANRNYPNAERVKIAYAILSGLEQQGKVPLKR
SHV-12, sequence (P0AD64 22-286 L31Q/G234S/E235K): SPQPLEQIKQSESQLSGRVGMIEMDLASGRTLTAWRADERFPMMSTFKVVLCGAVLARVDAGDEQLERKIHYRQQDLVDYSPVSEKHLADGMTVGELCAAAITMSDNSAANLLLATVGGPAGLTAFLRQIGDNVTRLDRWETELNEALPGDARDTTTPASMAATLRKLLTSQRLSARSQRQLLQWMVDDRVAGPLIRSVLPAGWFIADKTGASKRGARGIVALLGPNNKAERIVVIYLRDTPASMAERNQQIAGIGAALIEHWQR
CTX-M-14, sequence (Q9L5C7 29-291): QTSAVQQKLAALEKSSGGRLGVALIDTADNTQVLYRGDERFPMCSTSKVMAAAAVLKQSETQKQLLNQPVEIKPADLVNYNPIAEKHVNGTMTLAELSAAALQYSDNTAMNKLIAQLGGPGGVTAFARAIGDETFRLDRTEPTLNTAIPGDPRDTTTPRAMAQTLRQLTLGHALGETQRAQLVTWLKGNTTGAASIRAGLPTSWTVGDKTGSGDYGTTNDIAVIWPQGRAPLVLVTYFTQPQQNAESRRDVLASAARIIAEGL
P99, sequence (P05364 21-381): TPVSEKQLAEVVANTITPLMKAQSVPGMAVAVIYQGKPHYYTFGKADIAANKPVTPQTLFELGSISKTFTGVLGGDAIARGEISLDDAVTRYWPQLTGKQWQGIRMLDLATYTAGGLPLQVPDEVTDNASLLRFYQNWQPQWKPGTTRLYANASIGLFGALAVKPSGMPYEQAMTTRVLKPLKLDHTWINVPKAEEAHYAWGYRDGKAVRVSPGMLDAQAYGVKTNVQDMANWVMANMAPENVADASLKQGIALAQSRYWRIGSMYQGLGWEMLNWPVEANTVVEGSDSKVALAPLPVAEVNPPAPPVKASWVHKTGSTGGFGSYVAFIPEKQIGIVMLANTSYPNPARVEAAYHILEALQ

SMILES	TIG MPC4 SHV-12 KP1010 (KP1010 (SHV-12))	AZT MPC4 CMY-6 EC1010 (EC1010 (CMY-6) [1])	Ki (OXA-48)	TIG MPC4 CTX-M-15 KP1009 (KP1009 (CTX-M-15) [2])	Ki (SHV-12)	Ki (CTX-M-14)	AZT MPC4 TEM-10 ec302 (ec302 (TEM-10) [3])	Ki (KPC-2)	Ki (Pa AmpC)	TIG MPC4 SHV-5 ec308 (ec308 (SHV-5))	AZT MPC4 ECL1002 (ECL1002 [4])	AZT MPC4 CTX-M-15 KP1009 (KP1009 (CTX-M-15) [5])	Ki (P99)	TIG MPC4 CMY-6 EC1010 (EC1010 (CMY-6) [6])	TIG MPC4 TEM-10 ec302 (ec302 (TEM-10) [7])	TIG MPC4 ECL1002 (ECL1002 [8])	AZT MPC4 KPC-2 KP1004 (KP1004 (KPC-2) [9])	BPM MPC1 KP1004 KPC-2 (KP1004 (KPC-2) [10])	TIG MPC4 CTX-M-14 KP1005 (KP1005 (CTX-M-14) [11])	BPM MPC1 OXA-48 KP1086 (KP1086 (OXA-48))	also measured
CS(=O)(=O)CC(=O)N[C@H]1Cc2ccc(F)c(C(=O)O)c2OB1O [Compound 9, (R)-7-fluoro-2-hydroxy-3-(2-(methylsulfonyl)acetamido)-3,4-dihydro-2H-benzo[e][1,2]oxaborinine-8-carboxylic acid]	X (key: X: MIC of less than 1 μg/mL; Y: MIC of 1 μg/mL to 10 μg/mL; Z: MIC of greater than 10 μg/mL)	Y (key: X: MIC of less than 1 ng/mL; Y: MIC of 1 μg/mL to 10 μg/mL; Z: MIC of greater than 10 μg/mL)	> 10 nM	Y (MIC of 1 μg/mL to 10 μg/mL)	< 1 nM	1 to 10 nM	Y (MIC of 1 μg/mL to 10 μg/mL)	> 10 nM	> 10 nM	X (key: X: MIC of less than 1 μg/mL; Y: MIC of 1 μg/mL to 10 μg/mL; Z: MIC of greater than 10 μg/mL)	Y (MIC of 1 μg/mL to 10 μg/mL)	Y (key: X: MIC of less than 1 ng/mL; Y: MIC of 1 μg/mL to 10 μg/mL; Z: MIC of greater than 10 μg/mL)	> 10 nM	X (MIC of less than 1 μg/mL)	Z (key: X: MIC of less than 1 ng/mL; Y: MIC of 1 μg/mL to 10 μg/mL; Z: MIC of greater than 10 μg/mL)	X (MIC of less than 1 μg/mL)	Y (MIC of 1 μg/mL to 10 μg/mL)	X (MIC of less than 1 μg/mL)	Y (MIC of 1 μg/mL to 10 μg/mL)	Z (MIC of greater than 10 μg/mL)	AZT MPC4 CTX-M-14 KP1005 (KP1005 (CTX-M-14) [12]): Y (MIC of 1 μg/mL to 10 μg/mL)
CSCC(=O)N[C@H]1Cc2ccc(O)c(C(=O)O)c2OB1O [Compound 34, (R)-2,7-dihydroxy-3-(2-(methylthio)acetamido)-3,4-dihydro-2H-benzo[e][1,2]oxaborinine-8-carboxylic acid]	X (key: X: MIC of less than 1 μg/mL; Y: MIC of 1 μg/mL to 10 μg/mL; Z: MIC of greater than 10 μg/mL)	Y (key: X: MIC of less than 1 ng/mL; Y: MIC of 1 μg/mL to 10 μg/mL; Z: MIC of greater than 10 μg/mL)	< 1 nM	Y (MIC of 1 μg/mL to 10 μg/mL)	< 1 nM	< 1 nM	Y (MIC of 1 μg/mL to 10 μg/mL)	> 10 nM	> 10 nM	X (key: X: MIC of less than 1 μg/mL; Y: MIC of 1 μg/mL to 10 μg/mL; Z: MIC of greater than 10 μg/mL)	Y (MIC of 1 μg/mL to 10 μg/mL)	Y (key: X: MIC of less than 1 ng/mL; Y: MIC of 1 μg/mL to 10 μg/mL; Z: MIC of greater than 10 μg/mL)	1 to 10 nM	X (MIC of less than 1 μg/mL)	Y (key: X: MIC of less than 1 ng/mL; Y: MIC of 1 μg/mL to 10 μg/mL; Z: MIC of greater than 10 μg/mL)	X (MIC of less than 1 μg/mL)	Y (MIC of 1 μg/mL to 10 μg/mL)	X (MIC of less than 1 μg/mL)	X (MIC of less than 1 μg/mL)	Y (MIC of 1 μg/mL to 10 μg/mL)	
CSCC(=O)N[C@H]1Cc2ccc(OCC(=O)O)c(C(=O)O)c2OB1O [Compound 33, (R)-7-(carboxymethoxy)-2-hydroxy-3-(2-(methylthio)acetamido)-3,4-dihydro-2H-benzo[e][1,2]oxaborinine-8-carboxylic acid]	X (key: X: MIC of less than 1 μg/mL; Y: MIC of 1 μg/mL to 10 μg/mL; Z: MIC of greater than 10 μg/mL)	Y (key: X: MIC of less than 1 ng/mL; Y: MIC of 1 μg/mL to 10 μg/mL; Z: MIC of greater than 10 μg/mL)	< 1 nM	Y (MIC of 1 μg/mL to 10 μg/mL)	< 1 nM	< 1 nM	Y (MIC of 1 μg/mL to 10 μg/mL)	> 10 nM	> 10 nM	Y (key: X: MIC of less than 1 ng/mL; Y: MIC of 1 μg/mL to 10 μg/mL; Z: MIC of greater than 10 μg/mL)	Y (MIC of 1 μg/mL to 10 μg/mL)	Y (key: X: MIC of less than 1 ng/mL; Y: MIC of 1 μg/mL to 10 μg/mL; Z: MIC of greater than 10 μg/mL)	> 10 nM	Y (MIC of 1 μg/mL to 10 μg/mL)	Z (key: X: MIC of less than 1 ng/mL; Y: MIC of 1 μg/mL to 10 μg/mL; Z: MIC of greater than 10 μg/mL)	Y (MIC of 1 μg/mL to 10 μg/mL)	Y (MIC of 1 μg/mL to 10 μg/mL)	X (MIC of less than 1 μg/mL)	Y (MIC of 1 μg/mL to 10 μg/mL)	Z (MIC of greater than 10 μg/mL)	AZT MPC4 CTX-M-14 KP1005 (KP1005 (CTX-M-14) [12]): Y (MIC of 1 μg/mL to 10 μg/mL)
CSCC(=O)N[C@H]1Cc2ccc(SCCO)c(C(=O)O)c2OB1O [Compound 23, (R)-2-hydroxy-7-(2-hydroxyethylthio)-3-(2-(methylthio)acetamido)-3,4-dihydro-2H-benzo[e][1,2]oxaborinine-8-carboxylic acid]	X (key: X: MIC of less than 1 μg/mL; Y: MIC of 1 μg/mL to 10 μg/mL; Z: MIC of greater than 10 μg/mL)	Y (key: X: MIC of less than 1 ng/mL; Y: MIC of 1 μg/mL to 10 μg/mL; Z: MIC of greater than 10 μg/mL)	< 1 nM	Y (MIC of 1 μg/mL to 10 μg/mL)	< 1 nM	< 1 nM	Y (MIC of 1 μg/mL to 10 μg/mL)	> 10 nM	> 10 nM	X (key: X: MIC of less than 1 μg/mL; Y: MIC of 1 μg/mL to 10 μg/mL; Z: MIC of greater than 10 μg/mL)	Y (MIC of 1 μg/mL to 10 μg/mL)	Y (key: X: MIC of less than 1 ng/mL; Y: MIC of 1 μg/mL to 10 μg/mL; Z: MIC of greater than 10 μg/mL)	> 10 nM	Y (MIC of 1 μg/mL to 10 μg/mL)	Y (key: X: MIC of less than 1 ng/mL; Y: MIC of 1 μg/mL to 10 μg/mL; Z: MIC of greater than 10 μg/mL)	X (MIC of less than 1 μg/mL)	Y (MIC of 1 μg/mL to 10 μg/mL)	X (MIC of less than 1 μg/mL)	X (MIC of less than 1 μg/mL)	Z (MIC of greater than 10 μg/mL)	
COc1ccc2c(c1C(=O)O)OB(O)[C@@H](NC(=O)c1nnc(N)s1)C2 [Compound 28, (R)-3-(5-amino-1,3,4-thiadiazole-2-carboxamido)-2-hydroxy-7-methoxy-3,4-dihydro-2H-benzo[e][1,2]oxaborinine-8-carboxylic acid]	X (key: X: MIC of less than 1 μg/mL; Y: MIC of 1 μg/mL to 10 μg/mL; Z: MIC of greater than 10 μg/mL)		< 1 nM	Y (MIC of 1 μg/mL to 10 μg/mL)	< 1 nM	< 1 nM	Y (MIC of 1 μg/mL to 10 μg/mL)	> 10 nM	1 to 10 nM	X (key: X: MIC of less than 1 μg/mL; Y: MIC of 1 μg/mL to 10 μg/mL; Z: MIC of greater than 10 μg/mL)	Y (MIC of 1 μg/mL to 10 μg/mL)	Y (key: X: MIC of less than 1 ng/mL; Y: MIC of 1 μg/mL to 10 μg/mL; Z: MIC of greater than 10 μg/mL)	1 to 10 nM	X (MIC of less than 1 μg/mL)	Y (key: X: MIC of less than 1 ng/mL; Y: MIC of 1 μg/mL to 10 μg/mL; Z: MIC of greater than 10 μg/mL)	Y (MIC of 1 μg/mL to 10 μg/mL)	Y (MIC of 1 μg/mL to 10 μg/mL)	Y (MIC of 1 μg/mL to 10 μg/mL)	Y (MIC of 1 μg/mL to 10 μg/mL)	Z (MIC of greater than 10 μg/mL)	AZT MPC4 CTX-M-14 KP1005 (KP1005 (CTX-M-14) [12]): Y (MIC of 1 μg/mL to 10 μg/mL)
